Data reported in patent US20080048155A1, “Filter and Cyanine Compound” (priority 2004, published 2008).

How the values were obtained:
Type in all cases: physicochemical
[1] = Heat resistance stability test of filter (oven 80° C., 7 days); details: for Residual Ratio: (Absorbance after the test/Absorbance before the test)×100, 80° C., 7 days; for Absorbance (OD value) Initial: acryl resin filter on polyester film, at maximum absorption wavelength, before 80° C. test; for Absorbance (OD value) After 7 days: acryl resin filter, oven at 80° C. for 7 days
Protocol: (§1) In this connection, absorbance (OD value) was measured using a spectrophotometer UV-3150 made by Shimadzu Corp. When measurement was carried out using a solvent, the same solvent was measured as a blank, and when measurement was carried out using a filter, a filter which had the same composition except that only the cyanine compound was not contained was produced and measured as a blank.
In 18.8 parts of MEK, 0.4 parts of Compound 31 obtained in the above Example 5 was dissolved. To this solution, 80 parts of a resin solution prepared by dissolving 25 parts of an acryl-based resin (DIANAL (RTM) BR-80, made by Mitsubishi Rayon Co., Ltd.) in 75 parts of MEK was mixed to obtain a solution for coating. This solution was coated on a polyester film so that thickness becomes 2 to 4 μm, dried at 80° C. to obtain an optical filter of the present invention. This filter was used as a filter for absorbing near infrared rays.
The resultant filter for absorbing near infrared rays was left to stand in an oven at 80° C. for 7 days. Then absorbance (OD value) of the filter was measured with a spectrophotometer before and after the test, and residual ratio of the coloring matter was determined from the change of the absorbance (OD value) at the maximum absorption wavelength. Residual ratio=(Absorbance after the test/Absorbance before the test)×100

[2] = Wet heat resistance stability test of filter (85° C., 85% RH, 3 days); details: for Residual Ratio: absorbance after/before ×100, 85° C. and 85% RH, 3 days; for Absorbance (OD value) After 3 days / Absorbance (OD value) Initial: acryl resin filter; for Absorbance (OD value) After 3 days: 85° C. and 85% RH for 3 days; for Absorbance (OD value) Initial: before 85° C./85% RH test
Protocol: as §1
The filter obtained in Example 12 (the filter using Compound 31) was left to stand in a high temperature constant humidity chamber at 85° C. and 85% RH for 3 days. Absorbance (OD value) of the filter was measured with a spectrophotometer before and after the test, and residual ratio of the coloring matter was determined from the change of the absorbance (OD value) at the maximum absorption wavelength.
The filters obtained in Comparative Examples 1 to 6 were left to stand in a high temperature constant humidity chamber at 85° C. and 85% RH for 3 days. Then absorbances (OD values) of the filters were measured with a spectrophotometer before and after the test, and residual ratios of the coloring matters were determined from the changes of the absorbances (OD values) at each maximum absorption wavelength. The test using the filter obtained in Comparative Example 1 is termed as Comparative Example 7, the test using the filter obtained in Comparative Example 2 is termed as Comparative Example 8, the test using the filter obtained in Comparative Example 3 is termed as Comparative Example 9, the test using the filter obtained in Comparative Example 4 is termed as Comparative Example 10, the test using the filter obtained in Comparative Example 5 is termed as Comparative Example 11, and the test using the filter obtained in Comparative Example 6 is termed as Comparative Example 12.

[3] = Solubility to various solvents at room temperature; details: % by mass
From the text: Further, solubility to various types of solvents at room temperature was as follows.
Further, solubility to various kinds of solvents at room temperature was as follows.

[4] = Decomposition temperature by thermogravimetric-differential thermal analysis (TG-DTA); details: temperature at which weight loss initiated
Protocol: Into 25 parts of acetic acid, 14.9 parts of 4,5-benzo-1-(2-methoxyethyl)-3,3-dimethyl-2-methyleneindoline and 4.5 parts of 2-chloro-1-formyl-3-hydroxymethylenecyclohexene were charged and the reaction mixture was heated up to 60° C. 5.1 parts of acetic anhydride was added dropwise thereto at 50° C. to 60° C. over 1 hour, and then stirred at 50° C. to 60° C. for further 2 hours to complete the condensation reaction. The reaction liquid was cooled to room temperature, and then filtered under aspiration to remove insoluble impurity. Subsequently, a solution of 8.8 parts of potassium(bis-trifluoromethanesulfonyl)imide in 40 parts of water was added dropwise to the reaction liquid. The precipitated crystal was filtered under aspiration, recrystallized from 70 parts of N,N-dimethylformamide, washed with 5 parts of methanol, then with water, and dried, to obtain 19.1 parts of the aforementioned Compound 31. Spectroscopic characteristics and decomposition temperature of the resultant Compound 31 were as follows. In this connection, decomposition temperature was shown by a value of the temperature at which weight loss initiated in a thermogravimetric-differential thermal analysis (TG-DTA).

| SMILES | Residual Ratio [1] | Absorbance (OD value) Initial [1] | Absorbance (OD value) After 7 days [1] | Residual Ratio [2] | Absorbance (OD value) After 3 days [2] | Absorbance (OD value) Initial [2] | Solubility, Cyclopentanone [3] | Solubility, Dichloromethane [3] | Solubility, Methyl ethyl ketone (MEK) [3] | Solubility, N,N-dimethylformamide [3] | Decomposition temperature [4] | Solubility, Cyclohexanone [3] |
| --- | --- | --- | --- | --- | --- | --- | --- | --- | --- | --- | --- | --- |
| COCCN1/C(=C/C=C/C=C/C=C/C2=[N+](CCOC)c3ccccc3C2(C)C)C(C)(C)c2ccccc21 [Compound 30] | 89.7% | 0.83 | 0.74 | 97.3% | 0.80 | 0.83 | – | – | – | – | – | – |
| COCCN1/C(=C/C=C2\CCCC(/C=C/C3=[N+](CCOC)c4ccc5ccccc5c4C3(C)C)=C2Cl)C(C)(C)c2c1ccc1ccccc21 [Compound 31] | 80.9% | 0.65 | 0.52 | 90.9% | 0.59 | 0.65 | 14.5% | 19.2% | 2.9% | 24.6% | 242.9 °C | – |
| COCCN1/C(=C/C=C2\CCC(/C=C/C3=[N+](CCOC)c4ccc5ccccc5c4C3(C)C)=C2Cl)C(C)(C)c2c1ccc1ccccc21 [Compound 46] | – | – | – | – | – | – | 3.1% | – | 0.2% | 3.4% | 213.0 °C | 0.8% |
| CCCCOCCN1/C(=C/C=C2\CCC(/C=C/C3=[N+](CCOCCCC)c4ccc5ccccc5c4C3(C)C)=C2Cl)C(C)(C)c2c1ccc1ccccc21 [Compound 47] | – | – | – | – | – | – | 0.9% | – | 1.6% | 4.5% | 186.0 °C | 2.6% |
| COCCN1/C(=C/C=C2\CCCC(/C=C/C3=[N+](CCOC)c4ccccc4C3(C)C)=C2Cl)C(C)(C)c2ccccc21 [Compound A] | 87.2% | 0.83 | 0.72 | 99.9% | 0.82 | 0.83 | – | – | – | – | 224.6 °C | – |
| CN1/C(=C/C=C2\CCCC(/C=C/C3=[N+](C)c4ccc5ccccc5c4C3(C)C)=C2Cl)C(C)(C)c2c1ccc1ccccc21 [Compound B] | 85.6% | 0.67 | 0.57 | 93.6% | 0.63 | 0.67 | – | – | – | – | – | – |
| CN1/C(=C/C=C/C=C/C=C/C2=[N+](C)c3ccc4ccccc4c3C2(C)C)C(C)(C)c2c1ccc1ccccc21 [Compound C] | 80.9% | 0.75 | 0.61 | 89.7% | 0.67 | 0.75 | – | – | – | – | – | – |
